Test results from US10017463B2, “Inhibitors of deubiquitinating proteases” (Brandeis University, priority 2014, dated 2018).

How the values were obtained:
[1] = tested on: DUBs other than USP9x, most notably UCHL5; experiment: HA-Ubiquitin-Vinylsulfone activity profiling, other DUBs; format: biochemical; details: for inhibition of other DUBs other than USP9x: at 85 μM; for inhibition of other DUBs: below 25 μM
Procedure: Lysate labeling assay on untransfected cells (1.5 mg/mL lysate lysed using a Dounce homogenizer, 10 strokes, in 75 mM potassium phosphate pH 7.6, 150 mM NaCl, 0.75 mM BME) was run with the stated concentration of inhibitor (or 1% DMSO control) for 30 min. After this time HA-Ub-VS (1.5 μM) was added and incubated for 15 min. After this time reaction mixture (15 μL) was removed and quenched in 2× (final concentration) reducing Laemeli buffer. The reaction mixtures were heated to 37° C. for 10 min prior to analysis by western blot for HA. […] EC50s calculated by this method were in agreement with those found in the HA-blot.

MCL1 = MCL1 immunoblot in BaF3 parent cells; format: cell-based; details: 15 and 30 μM, 4 h
Text: Panel A is an image of a immunoblot showing knockdown of MCL-1 by TU46. […] Panel C is a bar graph showing the quantitation of the blots in Panel A and Panel B.
MCL1 is required to sustain growth of many transformed cells and is also regulated by USP9x. […] These findings help to explain why these compounds are toxic to Bcr-Abl independent cancer lines, especially BaF3.

B16-F10 = experiment: Proliferation assay, B16-F10; details: Mus musculus, B16-F10, 72 h, read-out: EC50 growth inhibition B16-F10
Procedure: Proliferation assays for adherent cells were conducted by plating cells at 5%-10% confluence in 96 well plates together with compound or 0.1% DMSO. Cells were allowed to grow for 48 h and then Alamar Blue® was added and number of cells was measured by fluorescence on a microplate reader.

Bcr-Abl [2] = experiment: Bcr-Abl immunoblot in BaF3/p210 cells; format: cell-based, murine; details: 4 h
Procedure: After this time cells were lysed and sonicated in S.D.S. Whole cell lysates were analyzed for Bcr-Abl and tubulin in triplicate. Panel B is a bar graph showing the quantitation of blots in Panel A. Panel C is an image of an immunoblot showing BaF3 cells were treated with various concentrations of TU50 in triplicate for 4 h, and then whole cell lysates were analyzed for Bcr-Abl and tubulin. Panel D is an image of an immunoblot similar to the experiment in Panel C but using TU46. Panel E is an image of an immunoblot similar to the experiment in Panel D but using TU49. Panel F is a plot showing the quantification of blots in Panel C, Panel D, and Panel E.
Proliferation inhibition/apoptosis assays and lysate activity profiling were all consistent with USP9x inhibition. Next, whether cell death in BaF3/p210 cells occurred through degradation of Bcr-Abl was validated. […] Encouragingly, the EC50 for Bcr-Abl degradation was 8±2 μM for TU50, which is within 2 fold of the proliferation inhibition EC50 obtained above (FIG. 7, Panel C).

[3] = target: T1, recombinant human 20S proteasome (Homo sapiens, UniProt P28074); experiment: 20S proteasome assay (Suc-Leu-Leu-Val-Tyr-AMC); format: biochemical; details: 50 μM for the TU compounds (FIG. 6D)
T1 construct: purchased Boston Biochem
Procedure: To recombinant human 20S proteasome ([…]) in 50 mM potassium phosphate pH 7.6, 50 mM NaCl, 1 mM DTT was added the compound or DMSO. This mixture was incubated at 25° C. for 30 min after which time substrate (Suc-Leu-Leu-Val-Tyr-AMC, 100 μM or 17 μM) was added and release of AMC was measured as a function of time using a plate reader for 30 min. The steady state rates were calculated and normalized to the DMSO rate. The concentration of inhibitor required to inhibit the enzyme by 50% was calculated using prism.

UCHL3 = target: T2, UCHL3 (Mus musculus, UniProt Q9JKB1); experiment: Cy5-Ub-VME activity profiling of treated BaF3/p210 cells, UCHL3; format: cell-based, murine; details: 50 μM, 4 h
T2 construct: endogenous in cells; host or cells: BaF3/p210
T2 sequence (Q9JKB1 1-230): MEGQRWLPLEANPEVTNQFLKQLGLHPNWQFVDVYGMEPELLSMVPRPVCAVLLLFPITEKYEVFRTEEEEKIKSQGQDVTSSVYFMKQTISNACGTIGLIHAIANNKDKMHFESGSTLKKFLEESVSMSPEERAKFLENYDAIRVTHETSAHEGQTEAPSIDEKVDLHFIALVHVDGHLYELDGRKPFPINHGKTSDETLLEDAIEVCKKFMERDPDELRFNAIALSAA
Procedure: FIG. 9 has two panels (A and B) depicting data showing that TUs inhibit DUBs in cells. BaF3/p210 cells were incubated with the stated concentration of compound for 4 h. After this time cells were lysed using beads, lysates were normalized, then exposed to Cy5-Ub-VME for 5 min. After quenching, lysates were resolved by SDS-PAGE, analyzed on typhoon, then stained by Coomassie. Panel A is an image of the SDS-PAGE gel visualized via Typhoon imager. Panel B is an image of the SDS PAGE gel stained with Coomassie.
The increased promiscuity of the inhibitors when the experiment is carried out in cells likely stems from the increased assay time (4 h vs 20 min) coupled with the slow on rates of the inhibitors and their targets.

BaF3/p210 cells = experiment: Proliferation assay (Alamar Blue), BaF3/p210; format: cell-based, murine; details: for EC50: Mus musculus, BaF3, fresh media with compound added after 24 h, 24 h further growth, read-out: EC50 (viable cells)
Text: This cell line consists of engineered murine leukemia cells that ectopically express Bcr-Abl. Parent BaF3 cells require exogenous interleukin 3 (IL3) because IL3 stimulates expression of MCL1, which is required for survival. However, BaF3/p210 cells require no exogenous interleukins but need Bcr-Abl for survival.

Bcr-Abl [4] = experiment: Bcr-Abl immunoblot in K562 cells; format: cell-based; details: for decrease in Bcr-Abl: 30 μM, 4 h
Procedure: After this time cells were lysed and sonicated in SDS. Whole cell lysates were analyzed for Bcr-Abl and tubulin in triplicate. Panel B is a bar graph showing the quantitation of the blots in Panel A. Panel C is a plot showing differing concentrations of TU50 were added to K562 cells and after 4 h the amount of Bcr-Abl was measured in whole cell lysates.

G76VUb-GFP in COS1 cells = experiment: UbG76V-GFP proteasome assay in COS1 cells; format: cell-based
Procedure: COS1 cells at approx. 75% confluence in a 48 well plate were transiently transfected with a plasmid encoding G76VUb-GFP using Mirus 2020 reagent. After this time media with either compound in DMSO or 1% DMSO was added to the cells and the cells were incubated for 8 h. After this time, cells were trypsinized, diluted with 1% FBS in PBS (FACS buffer) then centrifuged at 700 g. After this time cells on ice were treated with FACS buffer containing propidium iodide (0.05 mg/mL). The GFP (indicating proteasome activity) and red fluorescence (dye exclusion showing acute toxicity) were subsequently measured by FACS.

[5] = whole cell lysates sonicated, read-out: EC50 for Bcr-Abl degradation/knockdown

SMILES	inhibition of other DUBs other than USP9x [1]	inhibition of other DUBs [1]	knockdown of MCL1 (MCL1)	EC50 (B16-F10) [µM]	EC50 (Bcr-Abl [2]; unsonicated, read-out: EC50 for Bcr-Abl knockdown) [µM]	EC50 (Bcr-Abl [2]; [5]) [µM]	inhibition of pure 20S proteasome [3]	effect on UCHL3 (UCHL3)	growth inhibition of BaF3/p210 cells (BaF3/p210 cells)	selectivity for BaF3/p210 over NIH3T3 cells (BaF3/p210 cells)	selectivity for BaF3/p210 over other cancer lines (BaF3/p210 cells)	EC50 (BaF3/p210 cells) [µM]	decrease in Bcr-Abl (Bcr-Abl [4])	inhibition of the proteasome in G76VUb-GFP assay (G76VUb-GFP in COS1 cells; COS1, 8 h)	GFP signal (G76VUb-GFP in COS1 cells; COS1, at 50 μM)	GFP signal (G76VUb-GFP in COS1 cells; COS1, 8 h)	EC50 (Bcr-Abl [4]; K562, 4 h, read-out: EC50 for Bcr-Abl degradation) [µM]
CC(C)(C)OC(=O)NCCc1ccc(N=C=S)cc1 [TU46]	weak inhibition	little inhibition	very effective	70 ± 20	15 ± 7	9 ± 3	did not inhibit	relatively unaffected	good growth inhibition	over a ten-fold selectivity	at least a five-fold selectivity	11	four-fold decrease	did not inhibit	slight increase in GFP signal	–	–
O=C(NCc1ccc(N=C=S)cc1)OCc1ccccc1 [TU49]	weak inhibition	little inhibition	not as efficient	~30	–	9 ± 5	did not inhibit	relatively unaffected	good growth inhibition	–	–	–	four-fold decrease	did not inhibit	–	decreased the GFP signal	–
CC(C)(C)OC(=O)NCc1cccc(N=C=S)c1 [TU50]	weak inhibition	little inhibition	very effective	85 ± 10	–	8 ± 2	did not inhibit	relatively unaffected	good growth inhibition	over a ten-fold selectivity	at least a five-fold selectivity	16	four-fold decrease	did not inhibit	–	decreased the GFP signal	12
